“And” between values parts separate entries of the source, which are not always exact repeats. Identical values can stand only once.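 Protocol summary: plate cells (96-well), add compound at 5 concentrations, incubate 48 h, interpolate endpoints linearly. Abbreviation: GI50, concentration required for 50% inhibition of growth. TGI is the concentration that stops growth completely.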
Tests used:
Assay in all cases: DTP human tumour cell line panel, 48 h
[1] = system: A549 NSCLC
[2] = system: COLO 205 colon
[3] = system: DU-145 prostate
[4] = system: HT29 colon
[5] = system: IGROV1 ovarian
[6] = system: LOX IMVI melanoma
[7] = system: NCI-H23 lung
[8] = system: OVCAR-5 ovarian
[9] = system: OVCAR-8 ovarian
[10] = system: UO-31 renal

Row | SMILES | GI50 [1] | TGI [1] | GI50 [2] | TGI [2] | GI50 [3] | TGI [3] | GI50 [4] | TGI [4] | GI50 [5] | TGI [5] | GI50 [6] | TGI [6] | GI50 [7] | TGI [7] | GI50 [8] | TGI [8] | GI50 [9] | TGI [9] | GI50 [10] | TGI [10]
1 | OCc1c(-c2cccs2)oc(-c2cccs2)c1CO | 54.9 µM | > 100 µM | 35.9 µM | > 100 µM | 67.9 µM | > 100 µM | 41 µM | > 100 µM | 58.3 µM | > 100 µM | 26.6 µM | 52.7 µM | 38.7 µM | > 100 µM | 69.2 µM | > 100 µM | 50.7 µM | > 100 µM | 50.5 µM | > 100 µM
2 | O=C(O)CCC(O)=C1S(=O)(=O)OCCOS1(=O)=O |  | > 100 µM |  | > 100 µM |  | > 100 µM |  | > 100 µM |  | > 100 µM |  | > 100 µM |  | > 100 µM |  | > 100 µM |  | > 100 µM |  | > 100 µM
3 | O=C1c2ccccc2C(=O)N1c1ccc(Cc2ccc(N3C(=O)c4ccccc4C3=O)cc2)cc1 |  | > 100 µM |  | > 100 µM |  | > 100 µM |  | > 100 µM |  | > 100 µM |  | > 100 µM |  | > 100 µM |  | > 100 µM |  | > 100 µM |  | > 100 µM
4 | Cc1cc(NC(=O)NCCOc2ccc(N3C(N)=NC(N)=NC3(C)C)cc2Cl)ccc1S(=O)(=O)F | 1.4 µM | > 68.3 µM | 1.4 µM | 30.4 µM | 2.53 µM | > 100 µM | 0.484 µM | 13.8 µM | 0.545 µM | > 100 µM | 0.74 µM | > 100 µM | 2.76 µM | > 100 µM | 1.44 µM | > 100 µM | 4.91 µM | > 100 µM | > 100 µM | > 100 µM
5 | O=C1CCCC2=C1CC1=C(CCCC1=O)N2c1ccc(Cl)cc1 |  | > 100 µM |  | > 100 µM |  | > 100 µM |  | > 100 µM |  | > 100 µM |  | > 100 µM |  | > 100 µM |  | > 100 µM |  | > 100 µM |  | > 100 µM
6 | COc1cc(C[C@H]2COC(=O)[C@]2(O)Cc2ccc(OCc3ccccc3)c(OC)c2)ccc1OCc1ccccc1 | 7.13 µM | > 100 µM | 5.16 µM | 24.1 µM | 85.9 µM | > 100 µM | 4.16 µM | > 100 µM | > 100 µM | > 100 µM | 35.9 µM | > 100 µM | 30.6 µM | > 100 µM | > 100 µM | > 100 µM | 12.3 µM | > 100 µM | 35.5 µM | > 100 µM
7 | CC(NCCN(C)C)C1CCC2C3CCc4cc(O)ccc4C3CCC12C (stereo not drawn) |  | 13.6 µM |  | 3.54 µM |  | 18.6 µM |  | 8.45 µM |  | 17.2 µM |  | 4.75 µM |  | 16.5 µM |  | 18.3 µM |  | 11 µM |  | 3.76 µM
8 | O=C1/C(=C/c2ccc(F)cc2)COc2ccc(O)c(O)c21 | 3.32 µM | > 100 µM | 2.76 µM | 10.3 µM | 3.02 µM | 43.6 µM | 3.37 µM | > 100 µM | 1.1 µM | 3.94 µM | 1.03 µM | 2.39 µM | 2.65 µM | 13.7 µM | 3 µM | 8.99 µM | 2.16 µM | > 100 µM | 1.05 µM | 2.27 µM
9 | O=S(=O)(F)Cc1ccccc1 |  | > 100 µM |  | > 100 µM |  | > 100 µM |  | > 100 µM |  | > 100 µM |  | > 100 µM |  | > 100 µM |  | > 100 µM |  | > 100 µM |  | > 100 µM
10 | N#CC1=C(N)NC(=O)C(C#N)C12Nc1ccccc1S2 (stereo not drawn) | > 100 µM | > 100 µM | 89.9 µM | > 100 µM | > 100 µM | > 100 µM | > 100 µM | > 100 µM | 18 µM | 88.4 µM | 80.1 µM | > 100 µM | 41.2 µM | > 100 µM | > 100 µM | > 100 µM | 91.3 µM | > 100 µM | > 100 µM | > 100 µM
11 | COc1ccc2c(=O)c(-c3cc(OC)c(OC)cc3OC)coc2c1 |  | > 100 µM |  | 42.6 µM |  | > 100 µM |  | > 38.3 µM |  | > 100 µM |  | > 100 µM |  | > 100 µM |  | > 100 µM |  | > 100 µM |  | > 100 µM
12 | O=[N+]([O-])c1ccccc1/C=N\NC(=S)N/N=C/c1ccccc1[N+](=O)[O-] | 8.92 µM | > 100 µM | 11.3 µM | > 100 µM | 5.34 µM | 38.2 µM | 4.04 µM | > 100 µM | 3.67 µM | > 100 µM | 6.48 µM | > 100 µM | 10.8 µM | > 100 µM | 51 µM | > 100 µM | 11.9 µM | > 100 µM | 5.66 µM | 87.3 µM
13 | NC(CSC(c1ccccc1)(c1ccccc1)c1ccccc1)C(=O)O (stereo not drawn) | 4.86 µM and 2.75 µM | 82.1 µM and > 100 µM | 3.27 µM and 1.34 µM |  | 6.02 µM and 4.1 µM | 85.5 µM and > 100 µM | 3.71 µM and 3.28 µM | 27.3 µM and 14.6 µM | 3.98 µM and 4.69 µM | 84.8 µM and > 100 µM | 6.26 µM and 4.14 µM | 24.3 µM and > 100 µM |  | 7.15 µM and 51.7 µM | 4.28 µM | 89.4 µM and > 100 µM | 1.93 µM and 1.05 µM | 51.5 µM and 35.7 µM and > 100 µM | 9.89 µM | 107 µM and > 100 µM
14 | NCC(=O)Nc1ccc(Cl)cc1C(=O)c1ccc[nH]1 |  | > 100 µM |  | > 100 µM |  | > 100 µM |  | > 100 µM |  | > 100 µM |  | > 100 µM |  | > 100 µM |  | > 100 µM |  | > 100 µM |  | > 100 µM
15 | O=C(O)/C=C/c1c2ccc(=O)c(O)c-2oc2c(O)c(O)ccc12 |  | > 100 µM |  | > 100 µM |  | > 100 µM |  | > 100 µM |  | > 100 µM |  | 62.2 µM |  | > 100 µM |  | > 100 µM |  | > 100 µM |  | > 100 µM
16 | CCc1nc(N)nc(N)c1C#CC(C)c1ccc(-c2ccncc2)cc1Cl (stereo not drawn) | < 0.005 µM | 2 µM and 11.4 µM | 0.0387 µM and 0.0515 µM | 2.58 µM and 11.7 µM | 0.0242 µM and 0.0658 µM | 5.01 µM and 13.7 µM | 0.00589 µM and 0.012 µM | 5.82 µM and 2.45 µM | < 0.005 µM and 0.0323 µM | 6.71 µM and 19.1 µM | < 0.005 µM | 1.37 µM and 11.3 µM | 0.00854 µM and 0.0332 µM | 5.01 µM and 5.71 µM | 0.115 µM and 0.133 µM | 6.17 µM and 18.6 µM | < 0.005 µM and 0.0299 µM | 7.66 µM and 37.7 µM | 0.0227 µM and 0.073 µM | 1.47 µM and 13.5 µM
17 | COc1ccc2nc3cc(Cl)ccc3c(Nc3ccccc3-c3ccccc3Nc3c4ccc(Cl)cc4nc4ccc(OC)cc34)c2c1 |  | > 100 µM |  | > 88 µM |  | > 100 µM |  | 55.7 µM |  | > 71.1 µM |  | 47.4 µM |  | > 100 µM |  | > 85.9 µM |  | > 100 µM |  | > 100 µM
18 | CCN(Cc1cc(Cl)cc(C)c1O)Cc1c(O)ccc2ccccc12 |  | 38 µM |  | 42 µM |  | 34.7 µM |  | 28.1 µM |  | 31.1 µM |  | 38.8 µM |  | 32.1 µM |  | 35.2 µM |  | 37.7 µM |  | 30.4 µM
19 | O=NNc1ccc(-c2ccccc2)cn1 |  | > 92.3 µM |  | > 50.3 µM |  | 9.78 µM |  | 99.6 µM |  | > 81.3 µM |  | 28.8 µM |  | 25.2 µM |  | > 77.4 µM |  | > 100 µM |  | 58 µM
20 | O=CNC(Cc1cnc[nH]1)C(=O)O (stereo not drawn) |  | > 100 µM |  | > 100 µM |  | > 100 µM |  | > 100 µM |  | > 100 µM |  | > 100 µM |  | > 100 µM |  | > 100 µM |  | > 100 µM |  | > 100 µM

— PubChem BioAssay (NCI)
